Assay results taken from patent US9938301B2, “Dihydropyrimido fused ring derivative as HBV inhibitor” (QILU PHARMACEUTICAL CO., LTD., priority 2014, dated 2018).
Where two headings read alike, the source gives them in different places.

Tested on: HBV DNA in HepG2.2.15 cells
Assay: HBV in vitro assay quantitive qPCR test
Format: cell-based
Conditions: Hepatitis B virus, HepG2.2.15 cells
Experimental: • 1 Purpose of the test: • The content of HBV DNA in HepG2.2.15 cells was detected by real time quantitive qPCR test to evaluate an inhibitory action of the compound on HBV with an EC50 value of the compound as an indicator. • 2 Experimental materials: • 2.1 Cell lines: HepG2.2.15 Cells • HepG2.2.15 cell culture media (DMEM/F12, Invitrogen-11330057; 10% serum, Invitrogen-10099141; 100 units/ml Penicillin and 10 μg/ml Streptomycin, Invitrogen-15140122; 1% non-essential amino acid, Invitrogen-1140076; 2 mM L-GLUTAMINE, Invitrogen-25030081; 300 μg/ml Geneticin, Invitrogen-10131027 • 2.2 Reagents: • trypsin (Invitrogen-25300062) • DPBS (Hyclone-SH30028.01B) • DMSO (Sigma-D2650-100ML) • High-Throughput DNA Purification Kit (QIAamp 96 DNA Blood Kit, Qiagen-51162) • Quantitative Fast Start Universal Probe Reagent (FastStart Universal Probe Master, Roche-04914058001) • 2.3 Materials and Instruments: • 96-well cell culture plate (Corning-3599) • CO2 Incubator (HERA-CELL-240) • Optical Sealing Membrane (ABI-4311971) • Quantitative PCR 96-well Plate (Applied Biosystems-4306737) • Fluorescent Quantitative PCR Instrument (Applied Biosystems-7500 real time PCR system) • 3. Testing steps and Methods: • 3.1 HepG2.2.15 cells (4×10^4 cells/well) were planted into a 96-well plate, and at 37° C., 5% CO2 cultured overnight. • 3.2 On Day 2, the compounds were diluted in totally 8 concentrations with a dilution gradient of three times. The compounds at different concentrations were added into the culture wells in duplicate. The final concentration of DMSO in the culture media was 1%. 1 μM GLS4 was used as 100% inhibition control; 1% DMSO as 0% inhibition control. • 3.3 On Day 5, replacing with the fresh culture media containing the compound was performed. • 3.4 On Day 8, the culture media in the culture wells was collected, and DNA was extracted with a High-Throughput DNA Purification Kit (Qiagen-51162), See Specification of the product for specific steps. • 3.5 Preparation of PCR Reaction Mixture was shown in Table 1:
• 3.6 To each well of a 96-well PCR plate was added 15 μl reaction mixture, and then to each well was added 10 μl sample DNA or HBV DNA standard. • 3.7 The reaction conditions of PCR were: heating at 95° C. for 10 minutes; then at 95° C. denaturing for 15 seconds, and at 60° C. extending for 1 minute, totally 40 cycles. • 3.8 Data Analysis: • 3.8.1 The inhibition percentage was calculated: % Inh.=[1−(DNA copy number in sample−DNA copy number in 1 μM GLS4)/(DNA copy number in DMSO control−DNA copy number in 1 μM GLS4)]×100. • 3.8.2 Calculating EC50: the concentration of the compound for 50% inhibition of HBV (EC50) was calculated by using GraphPad Prism Software. • 4 Testing Results • The testing results were shown in Table 3: […]

[1] = qPCR assay, read-out: Concentration for 50% inhibition of HBV (EC50)value
[2] = summary list of target compounds, Examples 166-220 (values of Table 3), read-out: BIOACTIVITY (inhibitory actions on HBV DNA, EC50)

With COC(=O)C1=C2C[C@H](NS(=O)(=O)c3ccccc3)CN2C(c2nccs2)=N[C@H]1c1ccc(F)cc1Cl [Example 189] the EC50 [1] was < 100 nM and the EC50 [2] was < 100 nM.
In the case of COC(=O)C1=C2C[C@H](NS(=O)(=O)N3CCCC3)CN2C(c2nccs2)=N[C@H]1c1ccc(F)c(F)c1F [Example 208], the EC50 [1] is reported as < 100 nM and the EC50 [2] is reported as < 100 nM.
With COC(=O)CS(=O)(=O)N[C@H]1CC2=C(C(=O)OC)[C@H](c3ccc(F)cc3Cl)N=C(c3nccs3)N2C1 [Example 172] the EC50 [1] was < 100 nM and the EC50 [2] was < 100 nM.
